The values below come from patent publication US20260297060A1, “COMPOUNDS FOR THE DEGRADATION OF MUTANT BRAF” (C4 THERAPEUTICS, INC., priority 2023, published 2026).

This experiment addresses T1, BRAF V600E (Homo sapiens, UniProt P15056+Q96SW2, V600E).
T1 construct: knock-in of the HiBiT tag to the endogenous BRAF V600E locus; host or cells: A375.10 (A375 clonal line, CRISPR HiBiT knock-in at the endogenous BRAF V600E locus)
Description: BRAF V600E HiBiT Degradation Assay. Format: cell-based. A digest of the protocol: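 Endogenous HiBiT knock-in on BRAF V600E in A375 cells (clone A375.10); 11-point half-log series, top 10 μM, 2, 6 or 24 h at 37° C. Lytic HiBiT luminescence, background-subtracted, normalized to DMSO; 4-parameter fit gives DC50, Emax (residual protein) and IP (inflection point).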

[1] abbreviates: read-out: HiBiT-Degradation A375.10 BRAF 2 hours DC50, A375.10 cells, BRAF V600E, 2 hours.
Setting [2] is: read-out: HiBiT-Degradation A375.10 BRAF 2 hours Emax, A375.10 cells, BRAF V600E, 2 hours, residual protein remaining.
The mark [3] stands for this setting: read-out: HiBiT-Degradation A375.10 BRAF 2 hours IP, A375.10 cells, BRAF V600E, 2 hours, inflection point.
[4] abbreviates: A375.10 cells, BRAF V600E, 2 hours, residual protein remaining, read-out: HiBiT-Degradation A375.10 BRAF 2 hours Emax.
[5] abbreviates: A375.10 cells, BRAF V600E, 6 hours, residual protein remaining, read-out: HiBiT-Degradation A375.10 BRAF 6 hours Emax.
Where [6] appears, read: A375.10 cells, HiBiT, BRAF V600E, 24 hours, read-out: HiBiT-Degradation A375.10 BRAF 24 hours Emax.
The mark [7] stands for this setting: read-out: HiBiT-Degradation A375.10 BRAF 6 hours DC50, A375.10 cells, BRAF V600E, 6 hours.
The mark [8] stands for this setting: read-out: HiBiT-Degradation A375.10 BRAF 6 hours IP, A375.10 cells, BRAF V600E, 6 hours, inflection point.
The mark [9] stands for this setting: read-out: HiBiT-Degradation A375.10 BRAF 24 hours DC50, A375.10 cells, HiBiT, BRAF V600E, 24 hours.
Where [10] appears, read: read-out: HiBiT-Degradation A375.10 BRAF 24 hours IP, A375.10 cells, HiBiT, BRAF V600E, 24 hours.
Setting [11] is: A375.10 cells, BRAF V600E, 2 hours, inflection point, read-out: HiBiT-Degradation A375.10 BRAF 2 hours IP.
Where [12] appears, read: A375.10 cells, BRAF V600E, 2 hours, read-out: HiBiT-Degradation A375.10 BRAF 2 hours DC50.
The mark [13] stands for this setting: A375.10 cells, BRAF V600E, 6 hours, inflection point, read-out: HiBiT-Degradation A375.10 BRAF 6 hours IP.
Where [14] appears, read: A375.10 cells, BRAF V600E, 6 hours, read-out: HiBiT-Degradation A375.10 BRAF 6 hours DC50.
Where [15] appears, read: A375.10 cells, HiBiT, BRAF V600E, 24 hours, read-out: HiBiT-Degradation A375.10 BRAF 24 hours DC50.
[16] abbreviates: A375.10 cells, HiBiT, BRAF V600E, 24 hours, read-out: HiBiT-Degradation A375.10 BRAF 24 hours IP.

Read-outs that look alike come from different tables or passages of the source.

T1 sequence (P15056 whole entry V600E): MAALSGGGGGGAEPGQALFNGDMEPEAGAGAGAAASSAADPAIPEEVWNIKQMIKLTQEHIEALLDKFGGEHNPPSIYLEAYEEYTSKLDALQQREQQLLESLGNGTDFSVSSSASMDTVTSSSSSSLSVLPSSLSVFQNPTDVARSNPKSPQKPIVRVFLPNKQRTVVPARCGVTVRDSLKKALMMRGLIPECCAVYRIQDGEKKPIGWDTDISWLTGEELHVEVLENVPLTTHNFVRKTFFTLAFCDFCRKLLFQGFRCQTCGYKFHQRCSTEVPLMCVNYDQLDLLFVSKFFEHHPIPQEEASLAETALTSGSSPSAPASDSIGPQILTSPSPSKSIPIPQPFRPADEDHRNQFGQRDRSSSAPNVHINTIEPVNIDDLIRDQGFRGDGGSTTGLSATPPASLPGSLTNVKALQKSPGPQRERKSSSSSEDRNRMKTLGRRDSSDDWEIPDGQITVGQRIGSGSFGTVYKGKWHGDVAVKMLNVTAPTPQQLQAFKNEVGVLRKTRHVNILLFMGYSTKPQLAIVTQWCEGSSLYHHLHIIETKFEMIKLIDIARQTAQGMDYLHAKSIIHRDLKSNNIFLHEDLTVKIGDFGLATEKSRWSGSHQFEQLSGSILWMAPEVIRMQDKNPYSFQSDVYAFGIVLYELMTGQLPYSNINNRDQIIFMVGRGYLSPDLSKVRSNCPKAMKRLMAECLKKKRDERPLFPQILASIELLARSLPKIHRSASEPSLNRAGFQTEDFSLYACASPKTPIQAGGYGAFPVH
T1 sequence (Q96SW2 whole entry): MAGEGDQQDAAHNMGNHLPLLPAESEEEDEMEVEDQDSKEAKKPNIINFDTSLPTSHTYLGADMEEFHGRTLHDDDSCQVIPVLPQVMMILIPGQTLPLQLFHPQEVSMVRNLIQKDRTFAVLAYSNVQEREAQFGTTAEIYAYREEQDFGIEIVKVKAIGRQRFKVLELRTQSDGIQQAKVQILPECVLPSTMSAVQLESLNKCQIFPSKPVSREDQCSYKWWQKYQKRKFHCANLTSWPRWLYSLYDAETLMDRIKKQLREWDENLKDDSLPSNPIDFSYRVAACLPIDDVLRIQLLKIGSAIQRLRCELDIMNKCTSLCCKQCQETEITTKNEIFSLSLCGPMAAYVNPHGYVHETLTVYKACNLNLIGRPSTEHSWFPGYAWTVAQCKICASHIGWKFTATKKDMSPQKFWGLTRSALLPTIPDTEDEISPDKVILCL
T1 sequence (Q16531 whole entry partner): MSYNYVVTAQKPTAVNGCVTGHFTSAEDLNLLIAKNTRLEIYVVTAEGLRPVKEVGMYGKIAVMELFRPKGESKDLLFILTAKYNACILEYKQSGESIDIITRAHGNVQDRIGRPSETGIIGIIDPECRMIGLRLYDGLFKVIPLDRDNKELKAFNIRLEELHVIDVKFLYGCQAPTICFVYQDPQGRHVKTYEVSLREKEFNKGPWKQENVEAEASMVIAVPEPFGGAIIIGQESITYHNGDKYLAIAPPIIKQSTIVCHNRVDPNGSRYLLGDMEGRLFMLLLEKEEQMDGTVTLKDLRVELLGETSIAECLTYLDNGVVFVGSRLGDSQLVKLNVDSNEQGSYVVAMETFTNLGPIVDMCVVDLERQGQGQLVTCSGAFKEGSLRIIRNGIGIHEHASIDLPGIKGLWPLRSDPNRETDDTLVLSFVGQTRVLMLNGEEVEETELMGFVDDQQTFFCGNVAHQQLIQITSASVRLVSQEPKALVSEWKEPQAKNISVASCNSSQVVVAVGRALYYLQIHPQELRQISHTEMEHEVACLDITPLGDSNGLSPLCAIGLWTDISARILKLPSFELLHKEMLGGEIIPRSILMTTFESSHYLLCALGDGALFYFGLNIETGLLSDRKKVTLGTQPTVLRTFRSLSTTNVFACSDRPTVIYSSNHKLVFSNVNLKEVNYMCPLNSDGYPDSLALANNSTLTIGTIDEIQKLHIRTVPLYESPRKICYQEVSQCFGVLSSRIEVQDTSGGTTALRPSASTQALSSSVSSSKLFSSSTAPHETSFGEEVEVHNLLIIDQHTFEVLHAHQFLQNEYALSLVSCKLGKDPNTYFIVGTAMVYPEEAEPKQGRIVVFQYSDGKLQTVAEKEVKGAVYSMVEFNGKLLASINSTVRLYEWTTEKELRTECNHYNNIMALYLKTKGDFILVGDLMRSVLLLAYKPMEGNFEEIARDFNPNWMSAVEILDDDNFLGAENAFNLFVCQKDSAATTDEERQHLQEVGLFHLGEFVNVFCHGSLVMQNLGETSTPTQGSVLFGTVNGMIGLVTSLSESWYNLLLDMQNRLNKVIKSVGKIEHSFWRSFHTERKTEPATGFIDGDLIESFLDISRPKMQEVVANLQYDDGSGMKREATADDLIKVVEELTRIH

With `Cn1nc(N2CCC(=O)NC2=O)c2cc(F)c(N3CC4(CC(N5CCC6(CC5)CC(n5cnc7ccc(Oc8c(F)ccc(NS(=O)(=O)C9CCC9)c8C#N)cc7c5=O)C6)C4)C3)cc21` [Compound 259, N-[2-cyano-3-[3-[7-[2-[3-(2,4-dioxohexahydropyrimidin-1-yl)-5-fluoro-1-methyl-indazol-6-yl]-2-azaspiro[3.3]heptan-6-yl]-7-azaspiro[3.5]nonan-2-yl]-4-oxo-quinazolin-6-yl]oxy-4-fluoro-phenyl]cyclobutanesulfonamide], the DC50 runs as follows: under setting [1], less than 1000 nM; under setting [3], less than 1000 nM. For the same compound, the Emax under setting [2] was less than 50%.
On to `CN(CCO)S(=O)(=O)Nc1ccc(F)c(Oc2ccc3ncn(C4CC5(CCN(C6CC7(C6)CN(c6cc8c(cc6F)c(N6CCC(=O)NC6=O)nn8C)C7)CC5)C4)c(=O)c3c2)c1C#N` (stereo not drawn) [Compound 151, 6-[2-cyano-6-fluoro-3-[[2-hydroxyethyl(methyl)sulfamoyl]amino]phenoxy]-3-[7-[2-[3-(2,4-dioxohexahydropyrimidin-1-yl)-5-fluoro-1-methyl-indazol-6-yl]-2-azaspiro[3.3]heptan-6-yl]-7-azaspiro[3.5]nonan-2-yl]-4-oxo-quinazoline], for which the Emax by setting is: under setting [4], 50 to 90%; under setting [5], less than 50%; under setting [6], less than 50%. Moreover, the DC50 runs as follows: under setting [1], 1000 to 10000 nM; under setting [3], less than 1000 nM; under setting [7], less than 1000 nM; under setting [8], less than 1000 nM; under setting [9], less than 1000 nM; under setting [10], less than 1000 nM.
For the compound `CCN(C)S(=O)(=O)Nc1ccc(F)c(Oc2ccc3ncc(OCC4CCN(C5CCC(c6cc7c(cc6F)c(N6CCC(=O)NC6=O)nn7C)CC5)CC4)nc3c2)c1C#N` (single isomer, unassigned) [Compound 118, 7-[2-cyano-3-[[ethyl(methyl)sulfamoyl]amino]-6-fluoro-phenoxy]-2-[[1-[4-[3-(2,4-dioxohexahydropyrimidin-1-yl)-5-fluoro-1-methyl-indazol-6-yl]cyclohexyl]-4-piperidyl]methoxy]quinoxaline], the DC50 runs as follows: under setting [11], less than 1000 nM; under setting [12], less than 1000 nM; under setting [13], less than 1000 nM; under setting [14], less than 1000 nM; under setting [15], less than 1000 nM; under setting [16], less than 1000 nM. For the same compound, the Emax was less than 50% under setting [5], less than 50% under setting [6] and 50 to 90% under setting [2].
As to `CCN(C)S(=O)(=O)Nc1ccc(F)c(Oc2ccc3ncc(OC4CC5(CCN(C6CCC(c7cc8c(cc7F)c(N7CCC(=O)NC7=O)nn8C)CC6)CC5)C4)nc3c2)c1C#N` (single isomer, unassigned) [Compound 218, 7-[2-cyano-3-[[ethyl(methyl)sulfamoyl]amino]-6-fluoro-phenoxy]-2-[[7-[4-[3-(2,4-dioxohexahydropyrimidin-1-yl)-5-fluoro-1-methyl-indazol-6-yl]cyclohexyl]-7-azaspiro[3.5]nonan-2-yl]oxy]quinoxaline], the DC50 under setting [11] is less than 1000 nM, the DC50 under setting [12] is less than 1000 nM, the DC50 under setting [15] was less than 1000 nM and the DC50 under setting [16] is less than 1000 nM. Further, the Emax under setting [6] was less than 50% and the Emax under setting [2] is less than 50%.
Consider `CO[C@@H]1CCN(S(=O)(=O)Nc2ccc(F)c(Oc3ccc4ncn([C@H]5COC6(CCN(C7CC8(C7)CN(c7cc9c(cc7F)c(N7CCC(=O)NC7=O)nn9C)C8)CC6)C5)c(=O)c4c3)c2C#N)C1` [Compound 144, (3R)-N-[2-cyano-3-[3-[(3R)-8-[2-[3-(2,4-dioxohexahydropyrimidin-1-yl)-5-fluoro-1-methyl-indazol-6-yl]-2-azaspiro[3.3]heptan-6-yl]-1-oxa-8-azaspiro[4.5]decan-3-yl]-4-oxo-quinazolin-6-yl]oxy-4-fluoro-phenyl]-3-methoxy-pyrrolidine-1-sulfonamide], for which the Emax under setting [5] is less than 50%, the Emax under setting [6] is less than 50% and the Emax under setting [2] is 50 to 90%. The DC50 runs as follows: under setting [1], 1000 to 10000 nM; under setting [3], less than 1000 nM; under setting [7], less than 1000 nM; under setting [8], less than 1000 nM; under setting [9], less than 1000 nM; under setting [10], less than 1000 nM.
In the case of `CCN(C)S(=O)(=O)Nc1ccc(F)c(Oc2ccc3ncn([C@H]4COC5(CCN(C6CCC(c7cc8c(cc7F)c(N7CCC(=O)NC7=O)nn8C)CC6)CC5)C4)c(=O)c3c2F)c1C#N` (single isomer, unassigned) [Compound 41], the DC50 under setting [11] was less than 1000 nM; the DC50 under setting [12] is less than 1000 nM; the DC50 under setting [13] was less than 1000 nM; the DC50 under setting [14] is less than 1000 nM; the DC50 under setting [15] was less than 1000 nM; the DC50 under setting [16] was less than 1000 nM. Besides, the Emax is less than 50% under setting [5], less than 50% under setting [6] and less than 50% under setting [2].
Consider `Cn1nc(N2CCC(=O)NC2=O)c2cc(F)c(C3CCC(N4CCC5(CC4)C[C@@H](n4cnc6ccc(Oc7c(F)ccc(NS(=O)(=O)C8CCCC8)c7C#N)cc6c4=O)CO5)CC3)cc21` (single isomer, unassigned) [Compound 113], for which the DC50 is, setting by setting: under setting [11], less than 1000 nM; under setting [12], less than 1000 nM; under setting [13], less than 1000 nM; under setting [14], less than 1000 nM; under setting [15], less than 1000 nM; under setting [16], less than 1000 nM. The Emax reads like this: under setting [4], less than 50%; under setting [5], less than 50%; under setting [6], less than 50%.
Turning to `CCN(C)S(=O)(=O)Nc1ccc(F)c(Oc2ccc3ncc([C@@H]4COC5(CCN(C6CCC(c7ccc(NC8CCC(=O)NC8=O)cc7F)CC6)CC5)C4)nc3c2)c1C#N` (single isomer, unassigned) [Compound 60], the DC50 is, setting by setting: under setting [11], less than 1000 nM; under setting [12], less than 1000 nM; under setting [13], less than 1000 nM; under setting [14], less than 1000 nM; under setting [15], less than 1000 nM; under setting [16], less than 1000 nM. For the same compound, the Emax is less than 50% under setting [5], less than 50% under setting [6] and less than 50% under setting [2].
With `CCN(C)S(=O)(=O)Nc1ccc(F)c(Oc2ccc3ncn([C@@H]4COC5(CCN(C6CCC(c7cc8c(cc7F)c(N7CCC(=O)NC7=O)nn8C)CC6)CC5)C4)c(=O)c3c2F)c1C#N` (single isomer, unassigned) [Compound 46], the DC50 under setting [11] is less than 1000 nM; the DC50 under setting [12] was less than 1000 nM; the DC50 under setting [13] is less than 1000 nM; the DC50 under setting [14] is less than 1000 nM; the DC50 under setting [15] is less than 1000 nM; the DC50 under setting [16] is less than 1000 nM. The Emax is, setting by setting: under setting [5], less than 50%; under setting [6], less than 50%; under setting [2], less than 50%.
Regarding `CCN(C)S(=O)(=O)Nc1ccc(F)c(Oc2ccc3ncn([C@H]4COC5(CCN(C6CC7(C6)CN(c6ccc(NC8CCC(=O)NC8=O)cc6F)C7)CC5)C4)c(=O)c3c2)c1C#N` (stereo partly drawn) [Compound 35, (3R)-3-[6-[2-cyano-3-[[ethyl(methyl)sulfamoyl]amino]-6-fluoro-phenoxy]-4-oxo-quinazolin-3-yl]-8-[2-[4-[(2,6-dioxo-3-piperidyl)amino]-2-fluoro-phenyl]-2-azaspiro[3.3]heptan-6-yl]-1-oxa-8-azaspiro[4.5]decane], the DC50 reads like this: under setting [11], less than 1000 nM; under setting [12], less than 1000 nM; under setting [13], less than 1000 nM; under setting [14], less than 1000 nM; under setting [15], less than 1000 nM; under setting [16], less than 1000 nM. For the same compound, the Emax by setting is: under setting [4], less than 50%; under setting [5], less than 50%; under setting [6], less than 50%.
As for `Cn1nc(N2CCC(=O)NC2=O)c2cc(F)c(C3CCC(N4CCC5(CC4)CC(n4cnc6ccc(Oc7c(F)ccc(NS(=O)(=O)C8CCCC8)c7C#N)cc6c4=O)C5)CC3)cc21` (single isomer, unassigned) [Compound 93, N-[2-cyano-3-[3-[7-[4-[3-(2,4-dioxohexahydropyrimidin-1-yl)-5-fluoro-1-methyl-indazol-6-yl]cyclohexyl]-7-azaspiro[3.5]nonan-2-yl]-4-oxo-quinazolin-6-yl]oxy-4-fluoro-phenyl]cyclopentanesulfonamide], the DC50 was less than 1000 nM under setting [11]; less than 1000 nM under setting [12]; less than 1000 nM under setting [13]; less than 1000 nM under setting [14]; less than 1000 nM under setting [15]; less than 1000 nM under setting [16]. In addition, the Emax is, setting by setting: under setting [5], less than 50%; under setting [6], less than 50%; under setting [2], less than 50%.

A word on the Emax: it is the maximal effect, on the per cent scale that the assay sets.
